Reference: patent publication US20240373851A1, “PEST CONTROL COMPOSITION AND PEST CONTROL METHOD” (SUMITOMO CHEMICAL COMPANY, LIMITED, priority 2021, published 2024)

Legend:
Format in all cases: in vivo
[1] = system: German cockroaches (Blattella germanica); test: Test Example 6: control test against German cockroaches, spray in chamber; details: adult German cockroaches; 1.5 mL sprayed; concentration [%]: isocycloseram 0.05, imiprothrin 0.01, lambda-cyhalothrin 0.0025, alone or mixed; 60 minutes after spraying
Method: (§1) Next, the usefulness of the inventive composition for controlling pests will be indicated by Test Examples. In general, the control effect to be expected when treated with a mixture obtained by mixing given two or three types of active ingredient compounds is determined by the Colby's calculation equation represented by the following [Equation 1] and [Equation 2].
(§2) [formula] • P: moribund and mortal rates (%) when treated with an active ingredient compound X in the concentration of m [ppm] • Q: moribund and mortal rates (%) when treated with an active ingredient compound Y in the concentration of n [ppm] • EA: moribund and mortal rates (%) when treated with an active ingredient compound X in the concentration of m [ppm] and an active ingredient compound Y in the concentration of n [ppm] (hereinafter referred to as expected value A) […]
(§3) Regarding the synergistic effect of three types of the active ingredient compounds, in case where the moribund and mortal rates (%) when actually treated with a mixture obtained by mixing three types of the active ingredient compounds exceed the expected value A calculated by using the moribund and mortal rates (%) when actually treated with a mixture obtained by mixing two types of the active ingredient compounds among three types thereof, and the moribund and mortal rates (%) calculated when actually treated the remaining one type of the active ingredient compound, or the expected value B (%) calculated from the moribund and mortal rates (%) when actually treated with each of three types of the active ingredient compounds alone, it was determined that the synergistic effect exists. […]

[2] = system: German cockroaches (Blattella germanica); test: Test Example 1: control test against German cockroaches, spray in chamber (cup without filter paper); details: adult German cockroaches; 1.5 mL sprayed; concentration [%]: broflanilide 0.01, imiprothrin 0.01, cypermethrin 0.01, alone or mixed; 120 minutes after spraying
Method: as §1, §2
Regarding the synergistic effect of three types of the active ingredient compounds, in case where the moribund and mortal rates (%) when actually treated with a mixture obtained by mixing three types of the active ingredient compounds exceed the expected value A calculated by using the moribund and mortal rates (%) when actually treated with a mixture obtained by mixing two types of the active ingredient compounds among three types thereof, and the moribund and mortal rates (%) calculated when actually treated the remaining one type of the active ingredient compound, or the expected value B (%) calculated from the moribund and mortal rates (%) when actually treated with each of three types of the active ingredient compounds alone, it was determined that the synergistic effect exists.
In a plastic cup (diameter: 12.4 cm, height: 10.2 cm), ten adult German cockroaches (Blattella germanica) (five males and five females each) were released, and the plastic cup was placed in the center of the bottom of a box-shaped chamber (46 cm×46 cm×70 cm in height). […] After a lapse of 120 minutes from spraying, the number of dead and moribund individuals was examined, and moribund and mortal rates (%) were determined by the equation 3 below. […]

[3] = system: German cockroaches (Blattella germanica); test: Test Example 3: control test against German cockroaches, spray in chamber; details: adult German cockroaches; 1.5 mL sprayed; concentration [%]: broflanilide 0.02, imiprothrin 0.01, cyfluthrin 0.0016, alone or mixed; 420 minutes after spraying
Source text: (§4) Next, the usefulness of the inventive composition for controlling pests will be indicated by Test Examples.
(§5) (hereinafter referred to as expected value A)
(§6) (hereinafter referred to as expected value B)
(§7) In a plastic cup (diameter: 12.4 cm, height: 10.2 cm) lined with a filter paper, ten adult German cockroaches (Blattella germanica) (five males and five females each) were released, and the plastic cup was placed in the center of the bottom of a box-shaped chamber (46 cm×46 cm×70 cm in height). From the height of 60 cm, 1.5 mL of each of formulations prepared by dissolving a single agent of any one of broflanilide, imiprothrin and cyfluthrin, or a mixed agent of two or more thereof in a mixture of isopropyl alcohol and Isopar M at a mixing ratio of 1:9 was sprayed under a spray pressure of 0.041 MPa. After a lapse of 420 minutes from spraying, the number of dead and moribund individuals was examined, and moribund and mortal rates (%) were determined by the above equation 3. The test was performed through two replicates. Dead individuals are completely immobile individuals, and moribund individuals are individuals who cannot get up when turned on their backs.

[4] = system: German cockroaches (Blattella germanica); test: Test Example 9: control test against German cockroaches, spray in chamber; details: adult German cockroaches; 1.5 mL sprayed; concentration [%]: broflanilide 0.02, imiprothrin 0.01, permethrin 0.05, alone or mixed; 420 minutes after spraying
Source text: as §4, §5, §6
as §7, with “permethrin,” for “cyfluthrin,”

[5] = system: German cockroaches (Blattella germanica); test: Test Example 5: control test against German cockroaches, spray in chamber; details: adult German cockroaches; 1.5 mL sprayed; concentration [%]: nicofluprole 0.01, imiprothrin 0.01, cyfluthrin 0.0002, alone or mixed; 45 minutes after spraying
Source text: as §4, §5, §6
as §7, with “each) […]” for “each)”, “nicofluprole,” for “broflanilide,”, “45” for “420”

[6] = system: German cockroaches (Blattella germanica); test: Test Example 2: control test against German cockroaches, spray in chamber; details: adult German cockroaches; 1.5 mL sprayed; concentration [%]: nicofluprole 0.01, imiprothrin 0.01, cypermethrin 0.01, alone or mixed; 120 minutes after spraying
Method: as §1, §2, §3

[7] = system: German cockroaches (Blattella germanica); test: Test Example 7: control test against German cockroaches, spray in chamber; details: adult German cockroaches; 1.5 mL sprayed; concentration [%]: isocycloseram 0.05, imiprothrin 0.01, cypermethrin 0.01, alone or mixed; 120 minutes after spraying
Method: as §1, §2, §3

[8] = system: German cockroaches (Blattella germanica); test: Test Example 4: control test against German cockroaches, spray in chamber; details: adult German cockroaches; 1.5 mL sprayed; concentration [%]: nicofluprole 0.01, imiprothrin 0.01, deltamethrin 0.0002, alone or mixed; 45 minutes after spraying
Method: as §1, §2, §3

[9] = system: German cockroaches (Blattella germanica); test: Test Example 8: control test against German cockroaches, spray in chamber; details: adult German cockroaches; 1.5 mL sprayed; concentration [%]: nicofluprole 0.01, imiprothrin 0.01, phenothrin 0.1, alone or mixed; 45 minutes after spraying
Method: as §1, §2, §3

SMILES: CC1(C)[C@H](C(=O)O[C@H](C#N)c2cccc(Oc3ccccc3)c2)[C@@H]1/C=C(\Cl)C(F)(F)F (racemic) [Lambda-cyhalothrin, lambda-cyhalothrin]
- Moribund and mortal rates [%] after 60 minutes [1]: 45%

SMILES: CN(C(=O)c1ccccc1)c1cccc(C(=O)Nc2c(Br)cc(C(F)(C(F)(F)F)C(F)(F)F)cc2C(F)(F)F)c1F [Broflanilide, broflanilide]
- Moribund and mortal rates [%] after 120 minutes [2]: 5%
- Moribund and mortal rates [%] after 420 minutes [3]: 70%
- Moribund and mortal rates [%] after 420 minutes [4]: 70%

SMILES: CC1(C)C(C=C(Cl)Cl)C1C(=O)OC(C#N)c1ccc(F)c(Oc2ccccc2)c1 (centres unmarked) [Cyfluthrin, cyfluthrin]
- Moribund and mortal rates [%] after 420 minutes [3]: 0%
- Moribund and mortal rates [%] after 45 minutes [5]: 0%

SMILES: CC1(C)C(C=C(Cl)Cl)C1C(=O)OC(C#N)c1cccc(Oc2ccccc2)c1 (centres unmarked) [Cypermethrin, cypermethrin]
- Moribund and mortal rates [%] after 120 minutes [2]: 45%
- Moribund and mortal rates [%] after 120 minutes [6]: 15%
- Moribund and mortal rates [%] after 120 minutes [7]: 50%

SMILES: CC1(C)[C@H](C(=O)O[C@H](C#N)c2cccc(Oc3ccccc3)c2)[C@@H]1C=C(Br)Br [Deltamethrin, deltamethrin]
- Moribund and mortal rates [%] after 45 minutes [8]: 0%

SMILES: CC(C)=CC1C(C(=O)OCc2cccc(Oc3ccccc3)c2)C1(C)C (centres unmarked) [Phenothrin, phenothrin]
- Moribund and mortal rates [%] after 45 minutes [9]: 5%
